We go through one molecule from ChEMBL document CHEMBL4411327, “Discovery of pyrimidine nucleoside dual prodrugs and pyrazine nucleosides as novel anti-HCV agents” (Bioorg Med Chem, 2019).

pEC50: −log10 of the molar value. A value given as a limit tells only on which side of the number the result lay.

Data set [1] deals with Hepatitis C virus. The experiment in a line: Antiviral activity against HCV genotype 1b replicon infected in human HuH7 cells after 72 hrs by bright-glo luciferase reporter gene assay. The conditions noted are these: subtype 1b, Huh-7, 72 h. The format is functional, organism-based, Hepacivirus hominis.
Data set [2] deals with Hepatitis C virus. In words: Antiviral activity against HCV genotype 1b replicon infected in human HuH7 cells at 10 uM after 72 hrs by bright-glo luciferase reporter gene assay relative to control. Format: functional, Hepacivirus hominis. Conditions: subtype 1b, Huh-7, 72 h.
A short description of data set [3]: Cytotoxicity against human HuH7 cells infected with HCV genotype 1b replicon after 72 hrs by CellTiter-Fluor reagent based fluorescence assay. Format: cell-based, Huh-7. In general terms: A replicon is a self-replicating genome or part of one, used to study replication in cells.
Data set [4] is described as follows: Half life in human plasma at 40 uM by LC-MS/MS analysis. Format: ADME, cell-free.
Data set [5] can be described thus: Stability in human plasma assessed as parent compound remaining at 40 uM measured immediately by LC-MS/MS analysis. The format is ADME, cell-free. The conditions noted are these: read-out: Stability.
The nature of data set [6]: Stability in human plasma assessed as parent compound remaining at 40 uM measured after 0.5 hrs by LC-MS/MS analysis. The format is ADME, cell-free. Conditions: read-out: Stability.
Data set [7] in a line: Stability in human plasma assessed as parent compound remaining at 40 uM measured after 1 hr by LC-MS/MS analysis. The format is ADME, cell-free. The conditions noted are these: read-out: Stability.
The nature of data set [8]: Stability in human plasma assessed as parent compound remaining at 40 uM measured after 2 hrs by LC-MS/MS analysis. Format: ADME, cell-free. Conditions: read-out: Stability.
A short description of data set [9]: Stability in human plasma assessed as parent compound remaining at 40 uM measured after 5 hrs by LC-MS/MS analysis. The format is ADME, cell-free. Conditions: read-out: Stability.
The nature of data set [10]: Half life in human liver microsomes at 0.1 uM preincubated with MgCl2 for 10 mins followed by NADPH addition by LC-MS/MS analysis. Format: ADME, Microsome. The conditions noted are these: liver microsomes.
Data set [11] in a line: Stability in human liver microsomes assessed as parent compound remaining at 0.1 uM preincubated with MgCl2 for 10 mins followed by NADPH addition measured immediately by LC-MS/MS analysis. Format: ADME, Microsome. Conditions: read-out: Stability. Background: Liver microsomes are a subcellular fraction often used to study metabolism.
Data set [12] is described as follows: Stability in human liver microsomes assessed as parent compound remaining at 0.1 uM preincubated with MgCl2 for 10 mins followed by NADPH addition measured after 7 mins by LC-MS/MS analysis. Conditions: read-out: Stability. Format: ADME, Microsome.
Data set [13] can be described thus: Stability in human liver microsomes assessed as parent compound remaining at 0.1 uM preincubated with MgCl2 for 10 mins followed by NADPH addition measured after 17 mins by LC-MS/MS analysis. Format: ADME, Microsome. The conditions noted are these: liver microsomes, read-out: Stability.
Data set [14] is described as follows: Stability in human liver microsomes assessed as parent compound remaining at 0.1 uM preincubated with MgCl2 for 10 mins followed by NADPH addition measured after 30 mins by LC-MS/MS analysis. The format is ADME, Microsome. The conditions noted are these: liver microsomes, read-out: Stability.
Data set [15] can be described thus: Stability in human liver microsomes assessed as parent compound remaining at 0.1 uM preincubated with MgCl2 for 10 mins followed by NADPH addition measured after 60 mins by LC-MS/MS analysis. The format is ADME, Microsome. Conditions: read-out: Stability.
Data set [16] in a line: Metabolic bioavailability in human liver microsomes at 0.1 uM preincubated with MgCl2 for 10 mins followed by NADPH addition measured within 60 mins by LC-MS/MS analysis. The format is ADME, Microsome.

As usually defined, the pEC50 is −log10 of the EC50, conventionally taken in molar units. By inhibition is commonly meant the drop in the measured response relative to a control, in per cent. The CC50 is the concentration at which the toxic effect on the cells reaches its halfway point. Lower therefore signals greater toxicity to the cells. The half-life is how long it takes for the measured level to halve. The molecule `CC(C)COC(=O)n1c(=O)ccn([C@@H]2O[C@H](CO[P@@](=O)(N[C@@H](C)C(=O)OC(C)C)Oc3ccccc3)[C@@H](O)[C@@]2(C)F)c1=O` had a pEC50 with Hepatitis C virus [1] of 6.40. Further, in the data set on Hepatitis C virus [2], the inhibition at 10 µM worked out at 99.9%. The CC50 at 72 h in data set [3] is greater than 10000 nM. In addition, the half-life at 40 µM in data set [4] was 18 min. For the same molecule, the remaining at 0 h, 40 µM in [5] amounted to 100%. Moreover, the remaining at 0.5 h, 40 µM in data set [6] is 87.3%. In addition, the remaining at 1 h, 40 µM in data set [7] was 61%. Besides, the remaining at 2 h, 40 µM in data set [8] came out at 17.2%. Besides, the remaining at 5 h, 40 µM in [9] stood at 0%. The molecule also returned a half-life at 0.1 µM in [10] of 1.44 min. The remaining at 0 min, 0.1 µM in [11] was found to be 100%. Also, the remaining at 7 min, 0.1 µM in data set [12] came to 3.5%. Also, the remaining at 17 min, 0.1 µM in data set [13] was 0%. In data set [14], the remaining at 0.5 h, 0.1 µM amounted to 0%. The remaining at 1 h, 0.1 µM in data set [15] came to 0%. Also, the Fh at 1 h, 0.1 µM in data set [16] was found to be 1.33%.
